Tested on: yellow jackets indigenous to the west coast (V. pensylvanica)
Experiment: Trials B: trap catch on the west coast, preferred formulation against heptyl butyrate formulations
Format: in vivo
Conditions: average of two trials of each formulation
From the text: In the Examples and reported test results that follow, traps were usually hung in trees approximately four to six feet above the ground. A number of traps were used in each area where tests were made and the traps were spaced anywhere from fifteen to fifty feet apart. The traps used were commercially available traps generally of the top opening lid variety. Holes were made in the lids which were large enough to allow a yellow jacket to crawl inside the trap but small enough to confuse the yellow jackets in finding their way out. A trap of this kind is commercially available from Woodstream, Inc. sold under its trade name Yellow Jacket Trap®. The “vinegar” used in the examples was a vinegar as defined by FDA being a 5% acetic acid solution derived from apples. The “preferred formulation” used in the below reported trials was comprised of 58% apple juice concentrate; 36% vinegar; 5% poultry liver; and 1% dish detergent. Test were conducted on the west coast to compare the effectiveness of the preferred formulation of the invention with commercial formulations containing heptyl butyrate. Two trials of each formulation were made and the numbers indicate the average number of yellow jackets caught in the trials. […]

SMILES: CCCCCCCOC(=O)CCC [Heptyl Butyrate]
- average number of yellow jackets caught: 64

— US20020114822A1, “Attractants for yellow jackets” (priority 2000, published 2002)
